Data on 1 compound can be found in PMC4260628 (Chembiochem : a European journal of chemical biology, 2014).

pKd: −log10 of the molar value. Like-named read-outs stand apart in the source and are kept apart here.

Usually pKd stands for the negative decadic logarithm of the Kd, by convention in mol/L.

The target of test [1] is T1, TxtE (Streptomyces scabiei, UniProt C9ZDC6). Particulars: read-out: previously reported Kd; TxtE with L-tryptophan; cited from earlier work.
Test [2] has as its target T1, TxtE. Put plainly: biochemical. The test is classed as binding, Streptomyces scabies.
Test [3] addresses T1, TxtE. The test is classed as binding, Streptomyces scabies. As to conditions: TxtE in E. coli cell lysate 1.9 – 2.8 μM, substrate 250–500 μM, 15 min, pH 8.

Turning to `N[C@@H](Cc1c[nH]c2ccccc12)C(=O)O` [Substrate 1, L-tryptophan], the pKd was 4.22 to 4.36 in test [1] and 4.41 in test [2]. The “Spectral Shift” value in test [3] was “type I”.
